Reference: ChEMBL document CHEMBL5034039, “Discovery of Novel, Orally Bioavailable Pyrimidine Ether-Based Inhibitors of ELOVL1” (J Med Chem, 2021)
Activity calls are given as the source filed them. No cut-off for these calls is given here.

Columns and labels:
[1] = Intrinsic clearance in rat hepatocytes assessed per million cells; format: ADME, cell-based, Hepatocyte; settings: read-out: CLH
[2] = target: T1, Very long chain fatty acid elongase 1 (Homo sapiens, UniProt Q9BW60); assay: Inhibition of ELOVL1 in HEK293 cells assessed as reduction of C26:0 lipo phosphatidyl choline synthesis; format: cell-based
T1 sequence (Q9BW60 whole entry): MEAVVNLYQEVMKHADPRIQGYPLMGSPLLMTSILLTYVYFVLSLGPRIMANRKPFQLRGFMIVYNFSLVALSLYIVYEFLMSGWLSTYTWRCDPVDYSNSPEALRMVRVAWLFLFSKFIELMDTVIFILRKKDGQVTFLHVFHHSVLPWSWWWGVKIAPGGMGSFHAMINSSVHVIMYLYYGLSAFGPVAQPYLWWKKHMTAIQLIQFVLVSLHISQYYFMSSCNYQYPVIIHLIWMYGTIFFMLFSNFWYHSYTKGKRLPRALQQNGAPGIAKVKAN

[3] = Lipophilicity, logD of the compound at pH 7.4; format: physicochemical; settings: buffer
[4] = target: T1, Very long chain fatty acid elongase 1; assay: Inhibition of ELOVL1 (unknown origin)
[5] = target: T2, Very long chain fatty acid elongase 1 (Homo sapiens) (UniProt Q9BW60); assay: Inhibition of ELOVL1 in HEK293 cells assessed as increase in C20:0 lipo phosphatidyl choline synthesis at 100 nM in presence of 13C-labeled acetate measured after 48 hrs by mass spectroscopic analysis; format: cell-based
T2 sequence (whole entry): T1 sequence (Q9BW60 whole entry)

[6] = Reduction in C26:0/C16:0 LPC level in wild type Sprague-Dawley rat blood at 10 mg/kg, po qd measured after 28 days relative to control; format: functional; set-up: scale not given: the % may be the effect or the level left; settings: time 28 day
[7] = tested on: Cynomolgus monkey; assay: Reduction in C26:0/C16:0 LPC level in wild type Cynomolgus monkey blood at 6.5 mg/kg, po qd measured after 14 days relative to control; format: functional, Macaca fascicularis; set-up: scale not given: the % may be the effect or the level left; settings: time 14 day
[8] = Reduction in C26:0 LPC level in wild type mouse blood at 4 mg/kg, po qd and measured after 1 week relative to control; format: functional; set-up: scale not given: the % may be the effect or the level left; settings: time 1 weeks
[9] = tested on: HEK293; assay: Cytotoxicity against HEK293 cells assessed as reduction in cell viability at 100 nM measured after 48 hrs; format: cell-based; settings: human, hek293, 48 h, 0.1 µM
[10] = Reduction in C26:0/C16:0 LPC level in ABCD1 knock out mouse CNS at 32 mg/kg, po qd and measured after 3 months relative to control; format: functional; set-up: scale not given: the % may be the effect or the level left; settings: 2190 h
[11] = Clearance in rat at 1 mg/kg, iv; format: ADME, organism-based; settings: in vivo
[12] = tested on: MDR1; assay: Efflux ratio of permeability in dog MDCK-MDR1 cells; format: ADME, cell-based, Canis lupus familiaris
[13] = Half life in rat at 1 mg/kg, iv; format: ADME, organism-based; settings: in vivo
[14] = Permeability of compound across apical to basolateral side in MDCK-MDR1 cells; format: ADME, cell-based, Canis lupus familiaris; settings: dog, read-out: permeability
[15] = tested on: Mus musculus; assay: Reduction in C26:0/C16:0 LPC level in ABCD1 knock out mouse blood at 1 to 32 mg/kg, po qd and measured after 1 week; format: functional, organism-based; settings: dose 1-32 mg/kg, time 1.0 weeks
[16] = Reduction in C26:0/C16:0 LPC level in ABCD1 knock out mouse blood at >=8 mg/kg, po qd and measured after 1 week relative to control; format: functional; set-up: scale not given: the % may be the effect or the level left; settings: dose mg/kg >=8; time 1 weeks
[17] = target: Kappa-type opioid receptor (Homo sapiens) (UniProt P41145); assay: Inhibition of human kappa opioid receptor at 10 uM relative to control
Sequence of Kappa-type opioid receptor (Homo sapiens) (P41145 whole entry): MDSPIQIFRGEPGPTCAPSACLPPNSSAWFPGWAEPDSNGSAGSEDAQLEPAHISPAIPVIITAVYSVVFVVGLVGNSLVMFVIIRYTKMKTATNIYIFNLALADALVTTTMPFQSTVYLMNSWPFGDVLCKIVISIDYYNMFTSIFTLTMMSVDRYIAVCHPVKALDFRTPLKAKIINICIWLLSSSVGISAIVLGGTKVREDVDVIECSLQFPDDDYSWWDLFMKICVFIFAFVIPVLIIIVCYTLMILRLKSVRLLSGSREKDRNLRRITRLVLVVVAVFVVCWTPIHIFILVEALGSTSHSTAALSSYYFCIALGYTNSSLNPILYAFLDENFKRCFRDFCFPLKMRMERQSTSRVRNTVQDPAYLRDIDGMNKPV

[18] = Reduction in C26:0/C16:0 LPC level in wild type Sprague-Dawley rat blood at 50 mg/kg, po qd measured after 28 days relative to control; format: functional; set-up: scale not given: the % may be the effect or the level left; settings: time 28 day
[19] = target: T3, Very long chain fatty acid elongase 6 (Homo sapiens, UniProt Q9H5J4); assay: Inhibition of ELOVL6 in HEK293 cells by radiometric enzyme assay; format: cell-based
T3 sequence (Q9H5J4 whole entry): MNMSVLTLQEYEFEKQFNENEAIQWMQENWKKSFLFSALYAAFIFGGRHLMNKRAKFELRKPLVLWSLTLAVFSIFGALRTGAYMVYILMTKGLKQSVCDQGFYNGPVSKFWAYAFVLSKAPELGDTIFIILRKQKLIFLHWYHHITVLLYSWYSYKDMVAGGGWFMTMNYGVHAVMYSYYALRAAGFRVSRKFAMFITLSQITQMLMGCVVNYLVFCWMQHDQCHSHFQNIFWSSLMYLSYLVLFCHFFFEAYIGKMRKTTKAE

[20] = Inhibition of ELOVL7 in HEK293 cells by radiometric enzyme assay; format: cell-based, Homo sapiens
[21] = Reduction in C26:0 LPC level in wild type mouse blood at 32 mg/kg, po qd and measured after 1 week relative to control; format: functional; set-up: scale not given: the % may be the effect or the level left; settings: time 1 weeks
[22] = target: T4, Very long chain fatty acid elongase 6 (Homo sapiens) (UniProt Q9H5J4); assay: Inhibition of ELOVL6 in HEK293 cells assessed as reduction of C18:0 lipo phosphatidyl choline synthesis at 100 nM in presence of 13C-labeled acetate measured after 48 hrs by mass spectroscopic analysis; format: cell-based
T4 sequence (whole entry): T3 sequence (Q9H5J4 whole entry)

[23] = Oral bioavailability in rat at 3 mg/kg; format: ADME, organism-based; settings: in vivo
[24] = Reduction in C26:0 LPC level in wild type mouse blood at 16 mg/kg, po qd and measured after 1 week relative to control; format: functional; set-up: scale not given: the % may be the effect or the level left; settings: time 1 weeks
[25] = target: T4, Very long chain fatty acid elongase 6 (Homo sapiens); assay: Inhibition of ELOVL6 in HEK293 cells assessed as reduction of C16:0 lipo phosphatidyl choline synthesis at 100 nM in presence of 13C-labeled acetate measured after 48 hrs by mass spectroscopic analysis; format: cell-based
[26] = target: T2, Very long chain fatty acid elongase 1 (Homo sapiens); assay: Inhibition of ELOVL1 in HEK293 cells assessed as reduction of C24:0 lipo phosphatidyl choline synthesis at 100 nM in presence of 13C-labeled acetate measured after 48 hrs by mass spectroscopic analysis; format: cell-based
[27] = target: 3',5'-cyclic phosphodiesterase (Homo sapiens) (UniProt O76074+P27815+Q14432+Q13956+P18545+O00408+Q13946+P54750+O76083+P35913+Q08499+Q07343+O43924+P16499+Q13370+P51160+O95263+Q9Y233+Q01064+Q08493+Q14123+O60658+Q9NP56); assay: Inhibition of human PDE4 at 10 uM relative to control; format: protein assay
[28] = tested on: Cynomolgus monkey; assay: Reduction in C26:0/C16:0 LPC level in wild type Cynomolgus monkey blood at 50 mg/kg, po qd measured after 14 days relative to control; format: functional, Macaca fascicularis; set-up: scale not given: the % may be the effect or the level left; settings: time 14 day
[29] = Toxicity in Cynomolgus monkey assessed as convulsion at >50 mg/kg/day, po qd measured after 14 days; format: organism-based, Macaca fascicularis; settings: in vivo, 336 h, time 14 day
[30] = target: T2, Very long chain fatty acid elongase 1 (Homo sapiens); assay: Inhibition of ELOVL1 in HEK293 cells assessed as reduction of C26:0 lipo phosphatidyl choline synthesis at 100 nM in presence of 13C-labeled acetate measured after 48 hrs by mass spectroscopic analysis; format: cell-based
[31] = target: Voltage-gated inwardly rectifying potassium channel KCNH2 (Homo sapiens, UniProt Q12809); assay: Inhibition of human ERG
Sequence of Voltage-gated inwardly rectifying potassium channel KCNH2 (Q12809 whole entry): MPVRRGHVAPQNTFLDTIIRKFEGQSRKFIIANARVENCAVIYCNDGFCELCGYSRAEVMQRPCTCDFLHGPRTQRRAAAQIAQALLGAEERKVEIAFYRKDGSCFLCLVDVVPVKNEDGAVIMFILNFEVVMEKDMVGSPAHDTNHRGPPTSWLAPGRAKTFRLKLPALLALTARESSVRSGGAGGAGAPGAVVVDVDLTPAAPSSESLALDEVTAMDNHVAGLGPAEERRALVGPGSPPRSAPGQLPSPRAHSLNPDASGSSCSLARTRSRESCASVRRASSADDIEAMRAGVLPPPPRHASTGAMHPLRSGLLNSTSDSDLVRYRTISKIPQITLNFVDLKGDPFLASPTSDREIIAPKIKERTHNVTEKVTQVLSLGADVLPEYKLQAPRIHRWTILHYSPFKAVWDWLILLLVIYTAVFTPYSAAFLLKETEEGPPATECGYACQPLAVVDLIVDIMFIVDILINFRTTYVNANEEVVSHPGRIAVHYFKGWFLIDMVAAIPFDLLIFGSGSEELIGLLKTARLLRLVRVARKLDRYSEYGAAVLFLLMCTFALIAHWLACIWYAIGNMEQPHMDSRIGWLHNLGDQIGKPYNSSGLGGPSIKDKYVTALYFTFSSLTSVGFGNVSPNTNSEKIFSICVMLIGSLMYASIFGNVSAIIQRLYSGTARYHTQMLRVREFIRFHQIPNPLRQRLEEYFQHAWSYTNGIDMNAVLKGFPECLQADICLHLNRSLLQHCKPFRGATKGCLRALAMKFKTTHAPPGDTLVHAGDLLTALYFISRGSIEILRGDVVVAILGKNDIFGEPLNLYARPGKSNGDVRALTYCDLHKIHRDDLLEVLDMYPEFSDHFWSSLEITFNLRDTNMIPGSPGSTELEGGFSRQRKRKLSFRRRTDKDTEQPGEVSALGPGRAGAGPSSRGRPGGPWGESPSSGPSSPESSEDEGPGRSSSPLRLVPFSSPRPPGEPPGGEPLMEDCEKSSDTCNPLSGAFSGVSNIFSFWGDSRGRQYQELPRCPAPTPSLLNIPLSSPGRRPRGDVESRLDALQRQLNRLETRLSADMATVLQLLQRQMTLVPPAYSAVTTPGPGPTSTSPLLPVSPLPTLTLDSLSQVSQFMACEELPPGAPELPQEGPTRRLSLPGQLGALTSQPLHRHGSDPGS

[32] = tested on: Mus musculus; assay: Reduction in C26:0/C16:0 LPC level in ABCD1 knock out mouse CNS at 4 to 32 mg/kg, po qd and measured after 1 month; format: functional, organism-based; settings: dose 4-32 mg/kg, time 1.0 months
[33] = Ocular toxicity in rat assessed as corneal opacities at 10 to 50 mg/kg/day, po qd measured after 8 weeks by macroscopic analysis; format: organism-based; settings: in vivo, 1344 h, dose 10-50 mg/kg/day
[34] = Inhibition of ELOVL4 in HEK293 cells by radiometric enzyme assay; format: cell-based, Homo sapiens

Cc1ccnn1CCCOc1cc(N2CCOC(C(F)(F)F)C2)ncn1 (stereo not given)
hepatocyte CLint [1]: 194 µL/min/1e6 cells
IC50 [2]: 7 nM
logD [3]: 2.9

Fc1ccc(CCOc2cc(N3CCCCC3)ccn2)cc1
IC50 [2]: 440 nM
IC50 [4]: 860 nM

c1ccc([C@H]2CN(c3cc(O[C@H]4C[C@@H](n5cccn5)C4)ncn3)CCO2)cc1
inhibition [5]: Active
Activity [6]: 78%
Activity [7]: 47%
hepatocyte CLint [1]: 20 µL/min/1e6 cells
Activity [8]: 45%
IC50 [2]: 0.4 nM
Activity [9]: Non-Toxic
Activity [10]: 27%
logD [3]: 3.3
clearance [11]: 20 mL/min/kg
efflux ratio [12]: 1
half-life [13]: 3.1 h
Papp A→B [14]: 17.4 ×10⁻⁶ cm/s
Activity [15]: Active
Activity [16]: 72%
inhibition [17]: 54%
Activity [18]: 79%
IC50 [19]: > 50000 nM
IC50 [20]: > 50000 nM
Activity [21]: 70%
inhibition [22]: inactive
bioavailability [23]: 45%
Activity [24]: 70%
inhibition [25]: inactive
inhibition [26]: Active
inhibition [27]: 74%
Activity [28]: 65%
Activity [29]: Toxic
inhibition [30]: Active
IC50 [31]: > 30000 nM
Activity [32]: inactive
Activity [33]: Toxic
IC50 [34]: > 50000 nM

c1cnn([C@H]2C[C@@H](Oc3cc([C@H]4C[C@@H](n5cccn5)C4)ncn3)C2)c1
hepatocyte CLint [1]: 12 µL/min/1e6 cells
IC50 [2]: 210 nM
logD [3]: 2.6

Fc1ccc(CCOc2ccc(-c3cccnc3)cn2)cc1
IC50 [2]: 6700 nM
IC50 [4]: 21000 nM

CN(C)c1cc(OCCc2ccc(F)cc2)ncn1
hepatocyte CLint [1]: 539 µL/min/1e6 cells
IC50 [2]: 60 nM
logD [3]: 3.6

Fc1ccc(CCOc2cc(N3CCCC3)ncn2)cc1
hepatocyte CLint [1]: 273 µL/min/1e6 cells
IC50 [2]: 430 nM
logD [3]: 3.9

Fc1ccc(CCOc2cc(N3CCCCC3)ncn2)cc1
hepatocyte CLint [1]: 139 µL/min/1e6 cells
IC50 [2]: 80 nM
IC50 [4]: 220 nM

Cc1ccnn1CCCOc1cc(N2CCOC(c3ccccc3)C2)ncn1 (stereo not given)
hepatocyte CLint [1]: 111 µL/min/1e6 cells
IC50 [2]: 7 nM
logD [3]: 3.8

Fc1ccc(CCOc2cc(N3CCCCCC3)ncn2)cc1
hepatocyte CLint [1]: 273 µL/min/1e6 cells
IC50 [2]: 230 nM
logD [3]: 5.3

Cc1ccnn1CCOc1cc(N2CCCCC2)ncn1
hepatocyte CLint [1]: 366 µL/min/1e6 cells
IC50 [2]: 140 nM
logD [3]: 2.8

CN(c1cc(OCCc2ccc(F)cc2)ncn1)C1CCOC1 (stereo not given)
hepatocyte CLint [1]: 327 µL/min/1e6 cells
IC50 [2]: 60 nM
logD [3]: 3.6

Fc1ccn([C@H]2C[C@H](c3cc(O[C@H]4C[C@@H](n5cccn5)C4)ncn3)C2)n1
hepatocyte CLint [1]: 8.4 µL/min/1e6 cells
IC50 [2]: 0.3 nM
logD [3]: 3.1

Cc1ccnn1CCCOc1cc(N2C3COCC2C3)ncn1
hepatocyte CLint [1]: 40 µL/min/1e6 cells
IC50 [2]: 230 nM
logD [3]: 1.3
